Measurements taken from PubChem BioAssay (NCI).
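These data come from cells grown in 96-well plates and exposed to compound for 48 hours at five concentrations. TGI denotes the concentration required for complete inhibition of growth.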

Key:
Experiment in all cases: NCI tumour cell line growth inhibition, 48 h
MDA-MB-435 = system: MDA-MB-435
NCI-H460 lung = system: NCI-H460 lung
SN12C renal = system: SN12C renal
SW-620 colon = system: SW-620 colon
DU-145 prostate = system: DU-145 prostate
TK-10 renal = system: TK-10 renal
SF-539 CNS = system: SF-539 CNS
SNB-19 CNS = system: SNB-19 CNS
RPMI-8226 leukemia = system: RPMI-8226 leukemia
M14 melanoma = system: M14 melanoma
UO-31 renal = system: UO-31 renal

Compound: Cc1ccc2nc(-c3ccc(N4C(=O)C(Cl)C4c4ccc(Cl)cc4)cc3)sc2c1 (stereo unspecified)
- TGI (MDA-MB-435): 36.6 µM
- TGI (NCI-H460 lung): 46.2 µM
- TGI (SN12C renal): 53.6 µM
- TGI (SW-620 colon): 48 µM
- TGI (DU-145 prostate): > 100 µM
- TGI (TK-10 renal): 38.1 µM
- TGI (SF-539 CNS): 35.3 µM
- TGI (SNB-19 CNS): > 100 µM
- TGI (RPMI-8226 leukemia): 38.6 µM
- TGI (M14 melanoma): 57 µM
- TGI (UO-31 renal): 45.8 µM
